Drawing on the METLIN SMRT retention time set (Domingo-Almenara et al. 2019), this text covers RP-LC retention time for 80 compounds.

Structures are written as SMILES.

The data set in a line: gradient 5% acetonitrile 3 min, to 50% in 2 min, to 85% in 15 min, held 3 min, 100 µL/min. As to conditions: column: Zorbax Extend-C18 2.1 x 50 mm; eluents: water / acetonitrile, 0.1% formic acid. Summed up: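 Over 3 months, pure standards in mixtures of ~100 molecules were run by HPLC coupled to a quadrupole time-of-flight mass spectrometer in positive and negative ionization mode. The column was a Zorbax Extend-C18 (2.1 × 50 mm, 1.8 μm) at 100 μL/min, eluted with water and acetonitrile each holding 0.1% formic acid, with 40 μL dead and 900 μL dwell volumes. Retention time was determined from adduct peaks chosen by software and checked manually.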
Take `OC[C@@H]1CN(C2CCSCC2)C[C@H]1c1nc(-c2cccnc2)no1`: the RP-LC retention time stood at 555 s.
As for `CCOc1ccc(N(C)S(=O)(=O)c2ccsc2C(=O)NC2CCCC2)cc1`, the figure is 1030 s; as for `COCCCNC(=O)C1CCCN(c2cc(=O)n(C)c(=O)n2C)C1` (stereo not given), 585 s; as for `Cc1ccc(CN2CC(c3ncc(C)n3Cc3cccnc3)C2)s1`, 683 s.
As for `Cc1ccc(NC(=O)Cn2nc(N3CCOCC3)c3ccccc3c2=O)c(C)c1`, the figure is 809 s; as for `O=C(c1n[nH]c(=O)c2ccccc12)N1CCCC1c1nc(CCOCC2CCCC2)no1` (stereo not given), 848 s.
As for `COC[C@@H]1CN(c2ncccn2)C[C@H]1C(=O)N(C)Cc1ccco1`, the figure is 619 s; as for `C[n+]1ccc(Nc2ccc(NC(=O)c3ccc(Nc4cc[n+](C)c5ccc([N+](=O)[O-])cc45)cc3[N+](=O)[O-])cc2)cc1`, 1080 s; as for `COC(=O)C1=CN(c2ccc(F)cc2C)c2ccccc2S1(=O)=O`, 911 s.
`COc1ccc(CN2CC(=O)N(c3cccc(C)c3)[C@@H]3CS(=O)(=O)C[C@@H]32)cc1` returned an RP-LC retention time of 788 s.
The compound `COc1ccc(Cc2nnc3sc(-c4ccc(OC)cc4OC)nn23)cc1` gave an RP-LC retention time of 1030 s.
As for `COc1ccc(CNC(=O)CS(=O)(=O)c2cccs2)cc1`, the figure is 676 s.
`CCOc1ccc(-n2nnc(C(=O)OC)c2C(=O)OC)cc1`: the RP-LC retention time was found to be 882 s.
As for `Cc1c(Cl)cccc1Nc1c(-c2ccc(C(=O)O)cc2)nc2cnccn12`, the figure is 796 s.
As for `Cc1ccc(C(O)CN2CCN(c3ccccn3)CC2)c(C)c1` (stereo not given), the figure is 573 s.
Regarding `CNC(=O)[C@@H]1CCCN1C(=O)c1ccccc1`, the RP-LC retention time is 587 s.
As for `Cc1ccc(NC(=O)N2CC(n3ccnc3)C2)cc1C`, the RP-LC retention time amounted to 604 s.
As for `Cc1ccc(CNC(=O)c2ncn3c2C(=O)N(C2CC2)C(C)(C(=O)NCc2ccc(C)cc2)C3)cc1` (stereo not given), the figure is 832 s.
With `Cc1ccc(S(=O)(=O)N2CCC(c3nc(C(=O)N(C)C)c(C)o3)CC2)cc1`, the RP-LC retention time turned out to be 818 s.
As for `O=C(c1ccco1)N1CCN(c2nc(-c3ccc(Cl)cc3)nc3ccccc23)CC1`, the RP-LC retention time was 747 s.
As for `Fc1cccc(N2CC3(CCNCC3)C2c2ccccc2)c1` (stereo not given), the figure is 721 s.
As for `COC(=O)c1[nH]c(C)c(C(=O)CN(CC2CCCO2)C(=O)c2ccc(OC)cc2)c1C` (stereo not given), the figure is 1030 s; as for `CCN1C(=O)COc2ccc(-c3noc(-c4ccc(F)cc4)n3)cc21`, 1130 s.
As for `Fc1ccc(-c2noc(CCc3nnc4ccc(N5CCN(Cc6ccccc6)CC5)nn34)n2)cc1`, the figure is 656 s; as for `Cc1nc(NC(=O)C2CC(=O)N(c3n[nH]c4cccc(F)c34)C2)sc1C` (stereo not given), 688 s.
Turning to `COc1cccc(-c2cc3c(=O)n(Cc4nc(-c5ccc(Cl)cc5)no4)ccn3n2)c1`, the RP-LC retention time stood at 1120 s.
As for `Cc1ccccc1Nc1c(-c2cccc(Br)c2)nc2ccccn12`, the figure is 799 s; as for `CN(C)c1ncccc1NC(=O)Nc1ccccc1F`, 601 s; as for `CC(C)CN(Cc1cccnc1)C1CN(S(=O)(=O)c2cccnc2)C1`, 645 s.
As for `CCn1ccc(NC(=O)Nc2cccc(C)c2)n1`, the figure is 738 s; as for `Cn1cc(S(=O)(=O)N2CCCCC2)cc1C(=O)N1CCCCC1`, 833 s; as for `CCOC(=O)c1sc(NC(=O)COc2ccc(Cl)cc2)nc1C`, 970 s.
As for `Cc1ccccc1CNC(=O)C1(C)CCCN(C(=O)Nc2ccc(Cl)cc2)C1` (stereo not given), the figure is 995 s; as for `O=C(c1ccc(F)cc1Cl)N1CCC2(CC1)NC(=O)N(CCOc1ccccc1)C2=O`, 764 s.
`Cc1ccccc1-n1nc2c(c1NC(=O)CSCc1ccccc1)CSC2` registered an RP-LC retention time of 907 s.
In turn, `CCC(C)NC(=O)CN1CCN(C(=O)Nc2ccc(Cl)cc2)CC1=O` (stereo not given) registered an RP-LC retention time of 686 s.
In the case of `CC1CCN(C(=O)C2CCN(S(=O)(=O)c3ccc4c(c3)sc(=O)n4C(C)C)CC2)CC1`, the RP-LC retention time turned out to be 969 s.
Turning to `Cc1sc2ncnc(N3CCCCC3)c2c1C(=O)Nc1cc(F)c(F)c(F)c1`, the RP-LC retention time was 1230 s.
As for `Cc1ccc(C)c(NC(=O)N2CCC(n3c(C)nc4cccnc43)CC2)c1`, the figure is 638 s; as for `O=C(CCCN1C(=O)c2cccc3cccc(c23)C1=O)N1CCN(c2ccccc2)CC1`, 866 s.
As for `Cc1ccc(C)c(N2CCN(C(=O)Cn3cnc4nc5c(cc4c3=O)CCCC5)CC2)c1`, the RP-LC retention time was determined as 893 s.
As for `COc1ccc(C2Cn3cnc(C(=O)N4CCC(C(=O)NC5CCCCC5)CC4)c3CO2)cc1` (stereo not given), the figure is 697 s; as for `CCOc1cccc(C2C(C(=O)OC(C)C)=C(C)NC3=C2C(=O)C(C(=O)OC)C(C)C3)c1` (stereo not given), 968 s.
As for `O=C(NCc1ccc(F)cc1F)c1c(O)c2cccnc2n(-c2ccccc2)c1=O`, the figure is 1200 s.
For `O=C(NCc1ccc(F)cc1)N1CCCC1c1nc(-c2cccc(F)c2)no1` (stereo not given), the RP-LC retention time came to 946 s.
`O=C(NCc1ccccc1Cl)c1csc(C(=O)NC2CCCC2)n1` displayed an RP-LC retention time of 931 s.
As for `O=C(C1=CN(c2ccc(Br)cc2)c2cc(F)ccc2S1(=O)=O)N1CCOCC1`, the figure is 826 s; as for `Cc1nnc(-c2nnc(NCc3cccc(F)c3)c3ccccc23)o1`, 826 s; as for `O=C(NCC1(N2CCOCC2)CCOC1)Nc1cc(Cl)cc(Cl)c1` (stereo not given), 657 s.
As for `NC(=O)c1c(NC(=O)c2ccc(Br)s2)sc2c1CCCCC2`, the figure is 1040 s; as for `CC(=O)N1CCc2cc(CNS(=O)(=O)c3ccccc3F)ccc21`, 738 s.
For `CC(=O)Nc1ccc(S(=O)(=O)N2CC=C(c3cn(C(C)C)c4ncccc34)CC2)cc1`, the RP-LC retention time turned out to be 854 s.
As for `O=C1[C@H]2CN(Cc3cc(Br)ccc3F)C[C@H]2C(=O)N1CCc1ccccc1`, the figure is 1030 s; as for `COc1ccc(-c2nc(Nc3cnc(SC)nc3)sc2C)cc1`, 1050 s; as for `Nc1ncnc2c1nnn2C1OC(CO)C(O)C1O` (stereo not given), 513 s.
As for `COc1ccc(N2CC(C(=O)N3CCN(c4ccccn4)CC3)CC2=O)cc1` (stereo not given), the figure is 582 s; as for `Cc1nc(-c2nnc(NC(=O)C3CCN(S(C)(=O)=O)CC3)o2)cs1`, 572 s.
The compound `O=C(Nc1cccc(C(F)(F)F)c1)N1CCC(n2cnnc2C2CC2)C1` (stereo not given) came in with an RP-LC retention time of 701 s.
As for `O=C(NCc1cccc(Cl)c1)c1ccc2c(c1)ncn2CCN1CCCC1`, the figure is 601 s.
As for `O=C1N(c2ccc(F)cc2)c2ncccc2S(=O)(=O)N1Cc1ccccc1`, the figure is 1020 s.
In the case of `CCOC(=O)Cc1ccc(NC(=O)N2CCCC2c2cc(C)on2)cc1` (stereo not given), the RP-LC retention time was found to be 807 s.
As for `Cc1[nH]c(C(=O)Nc2ccc(F)cc2F)c(C)c1S(=O)(=O)N1CCCCC1`, the figure is 949 s; as for `Cn1c(=O)c2cc(C(=O)Nc3ccccc3)cnc2n(-c2ccccc2)c1=O`, 862 s; as for `COCCn1cc(C(=O)Nc2ccc(N(C)C)cc2)c2nn(-c3ccccc3)c(=O)c-2c1`, 710 s.
For `CCOC(=O)c1cnc2nc(C)ccc2c1Nc1ccc(F)cc1`, the RP-LC retention time turned out to be 672 s.
As for `COC(=O)Cn1nc(-c2nc(-c3cccc(Cl)c3)no2)ccc1=O`, the figure is 960 s; as for `COCC1CN(C2CCC2)CC12CCN(C(=O)Cc1ccsc1)CC2` (stereo not given), 608 s.
As for `COc1ccc(C(=O)N[C@@H]2CCC[C@@H]2C(=O)N(C)C)cn1`, the figure is 595 s; as for `COc1ccc(OCC(=O)N2CCC(C(=O)NCc3csc(-c4cccs4)n3)CC2)cc1`, 771 s.
As for `Cc1cc(-c2nnc(C3CCC3)o2)c(C)n1CC(=O)NCc1ccc(F)c(Cl)c1`, the figure is 904 s; as for `COc1ccc(CNC(=O)C2c3ccccc3C(=O)N3CCc4ccccc4C23)c(OC)c1` (stereo not given), 796 s; as for `O=C(Cn1nc2n(c(=O)c1=O)CCN2c1ccccc1)Nc1ccc(OC(F)(F)F)cc1`, 808 s.
`Cc1nc(CCNS(=O)(=O)c2cccc(C(F)(F)F)c2)no1` came in with an RP-LC retention time of 807 s.
As for `CC(C)Cn1nc(CNC(=O)c2ccco2)c2ccccc21`, the figure is 852 s.
As for `CS(=O)(=O)c1ccc2nc(NC(=O)c3csc(-n4cccc4)n3)sc2c1`, the figure is 849 s; as for `Cc1ccc(NC(=O)CSc2ccc(N3CCCC(C(=O)NC4CC4)C3)nn2)cc1F` (stereo not given), 664 s; as for `CCn1ccc2sc(C)c(C(=O)N3CCN(c4ccc(F)cc4)CC3)c2c1=O`, 808 s.
As for `Cc1cnc(CC2CCN(S(=O)(=O)c3ccccc3)C2)n1C(C)C` (stereo not given), the figure is 650 s; as for `CCc1nc(-c2csc(S(=O)(=O)N3CCCC(C(=O)NC4CC4)C3)c2)no1` (stereo not given), 787 s.
With `O=C(NCc1ccc(Cl)cc1)C1CCCN(c2ncnc3c2nc2n3CCCCC2)C1` (stereo not given), the RP-LC retention time is 812 s.
